Data on 6 substances can be found in US20140329706A1, “AFFINITY TAGS, AND RELATED AFFINITY LIGANDS, ENGINEERED PROTEINS, MODIFIED SUPPORTS, COMPOSITIONS, METHODS AND SYSTEMS” (CALIFORNIA INSTITUTE OF TECHNOLOGY, priority 2013, published 2014).

For data set [1], the target named is T1, PSD-95 PDZ2 coupled to a solid support (Mus musculus, UniProt Q62108).
T1 construct: pJExpress414 plasmids containing a gene coding for the PDZ2 domain of PSD-95; made in house; host or cells: E. coli BL21(DE3)
Put plainly: Binding of NR2B tail truncation fusion proteins to PSD-95 PDZ2 affinity resin. The settings on record: elution with SIESDV peptide, SDS-PAGE. As for the experimental part: For the experiment, fusion proteins containing THX fused to varying numbers of residues from the NR2B Tail ([…]) were expressed in BL21(DE3) E. coli cells. Single colonies of BL21(DE3) cells harboring pJExpress414 plasmids containing genes of interest were grown overnight at 37° C. in 5 ml of lysogeny broth (LB) (Cat. No. L9110, Teknova, Hollister, Calif.) supplemented with 100 ug/ml carbenicillin. Overnight cultures were diluted 1:500 into Overnight Express Instant Terrific Broth (TB) Media (Cat. No. 71491, EMD Millipore, Billerica, Mass.), grown for 16 h at 37° C., pelleted by centrifugation, and flash frozen in liquid nitrogen. Bacterial cell pellets (0.4-2.5 grams) containing fusions of THX fused to varying numbers of residues from the NR2B Tail ([…]) were resuspended in 5 ml/g cell paste of BugBuster Lysis Buffer [1× BugBuster (Cat. No. 70921, EMD Millipore, Billerica Mass.), 50 mM HEPES, 150 mM NaCl, 5 mM TCEP, 0.5 mM EDTA, 10 mM MgCl2, 2 mM PMSF, Complete Protease Inhibitor supplemented with 25 U/ml Benzonase and 10 U/ml ReadyLyse]. Resuspended cells were incubated on a shaking platform at low speed for 20 minutes at room temperature before the lysate was clarified by centrifugation at 16,000×g for 30 min at 4° C. […] Eluted protein was analyzed on 4-12% bis-tris SDS-PAGE gels and proteins were detected by Gel Code Blue staining.
For the experiment, fusion proteins containing MBP fused to varying numbers of residues from the NR2B Tail ([…]) were expressed in BL21(DE3) E. coli cells. […] Bacterial cell pellets (0.4-2.5 grams) containing fusions of MBP fused to varying numbers of residues from the NR2B Tail ([…]) were resuspended in 5 ml/g cell paste of BugBuster Lysis Buffer [1× BugBuster (Cat. No. 70921, EMD Millipore, Billerica Mass.), 50 mM HEPES, 150 mM NaCl, 5 mM TCEP, 0.5 mM EDTA, 10 mM MgCl2, 2 mM PMSF, Complete Protease Inhibitor supplemented with 25 U/ml Benzonase and 10 U/ml ReadyLyse]. […]

For data set [2] the following is noted: untagged LacZ, Wallenfels & Malhotra, cited from earlier work.
A further data set deals with PDZ1 domain of PSD-95 (Rattus norvegicus, UniProt P31016). The settings on record: cited from earlier work.
The next data set addresses PDZ2 domain of PSD-95 (Rattus norvegicus, UniProt P31016). To be noted: cited from earlier work.
The conditions of data set [3]: refs (54-58); read-out: approximate KD; cited from earlier work.
In data set [4] the test system is NR2B C-terminal PDZ domain binding peptide, 1× nNOS PDZ-β-hairpin domains or 2× nNOS PDZ-β-hairpin domains. Put plainly: Binding of control MBP or GST to peptide and nNOS PDZ affinity resins. To be noted: expressed alone without a PDZ domain. The source says:
In order to test the hypothesis, PSD-95 PDZ2 domains (e.g. Type C PDZ affinity tags) were fused N- or C-terminally to MBP, or internally between an MBP and GST proteins and purified using affinity chromatography resins comprised of NR2B C-terminal PDZ domain binding peptide (H3N+-[…]-COO—), 1× nNOS PDZ-β-hairpin domains or 2× nNOS PDZ-β-hairpin domains. […] Tags performed equally when fused internally or C-terminally, however N-terminal tag fusions were purified in slightly lower yield.
For the experiment, MBP, GST and PSD-95 PDZ2 domains protein or fusion proteins consisting of MBP and/or GST fused in frame with N-terminal, internal or C-terminal PSD-95 PDZ2 domains (e.g. Type C PDZ affinity tags) were expressed in BL21(DE3) E. coli cells. […] Bacterial cell pellets (0.4-2.5 grams) containing the proteins of interest were resuspended in 5 ml/g cell paste of BugBuster Lysis Buffer [1× BugBuster (Cat. No. 70921, EMD Millipore, Billerica Mass.), 50 mM HEPES, 150 mM NaCl, 5 mM TCEP, 0.5 mM EDTA, 10 mM MgCl2, 2 mM PMSF, Complete Protease Inhibitor supplemented with 25 U/ml Benzonase and 10 U/ml ReadyLyse]. […] Eluted protein was analyzed on 4-12% bis-tris SDS-PAGE gels and proteins were detected by Gel Code Blue staining.

Like-named read-outs stand apart in the source and are kept apart here. Where no end group is shown, it is not given here. MBP = maltose binding protein (fusion tag)

T1 sequence (Q62108 160-246 limits assumed): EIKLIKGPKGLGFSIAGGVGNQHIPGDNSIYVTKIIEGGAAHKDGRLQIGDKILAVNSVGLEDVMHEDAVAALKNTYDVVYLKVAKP

Turning to IESDV, the “binding to and elution from PSD-95 PDZ2 matrix” value (shortened to “binding to and elution”) in data set [1] was “required for effective binding to and elution from the PDZ2 PSD-95 matrix”.

For the substance “LacZ: untagged β-Galactosidase, literature values”, the Km in data set [2] (ONPG) is 161 µM. For the same substance, the “VMAX (umol ONPG/mg protein*min)” value in data set [2] is given as 178* umol ONPG/mg protein*min.

On to SIESDV, for which the Kd at PDZ1 domain of PSD-95 (ref (49)) is 2300 nM; on PDZ1 domain of PSD-95 (ref (134)) it was 9700 nM; on PDZ2 domain of PSD-95 (ref (49)), 700 nM; at PDZ2 domain of PSD-95 (ref (134)), 1300 nM.

Take “MBP-EKLSSIESD: MBP fused to NR2B tail sequence lacking the C-terminal valine ({MBP}-EKLSSIESD)”: the “binding to and elution” value in data set [1] is “abolished binding to the column”.

“GST-EKLSSIESD: GST fused to NR2B tail sequence lacking the C-terminal valine ({GST}-EKLSSIESD)”: the “binding to and elution” value in data set [1] was “abolished binding to the column”.

“GST: glutathione-S-transferase, known affinity tag and control fusion partner”: in data set [3], the Kd is 40000 to 170000 nM. Moreover, the “binding to affinity resins” value in data set [4] is “did not bind to any of the three affinity resins”.

One may read the Km as the concentration of substrate that gives half-maximal velocity. The term Kd denotes the constant that tells how readily two partners part at equilibrium.
